What is called half-life is how long it takes for the measured level to halve.

The subject of series [1] is activated CD8-positive T-cells. As to the kind of experiment: Viability and activation of CD8-positive T-cells. The class given is cell-based, mouse. The settings on record: 96 hrs. The method, then:
CD8+ cells were isolated from the spleens of 8-12 week old C57BL6 mice on standard chow from Jackson Labs maintained under IACUC approved protocols. CD8+ cells were stained using the proliferative dye Cell Trace Violet (LifeTech) before stimulation as per manufacturer's protocol. Cells were stimulated on 5 ug/mL anti-CD3/CD28-coated plates in media containing IL-2 (‘activated’, 10 ng/mL), or in tissue-culture treated plates in media containing IL-7 (‘naive’, 1 ng/mL) for up to 7 days. Cells were removed at each day described for viability, cell counts, proliferation, and surface markers of activation. Cell surface markers used were CD62L-FITC and APC, CD44-PECy5 and CD25-PE. All data were acquired in triplicate on a MacsQuant Analyzer (Miltenyi Biotec) and analyzed using FlowJo V10 (TreeStar software).

For series [2], the system named is pERK in HCC1806 and HT29 cells. Kind of series: AlphaScreen SureFire pERK assay. The format is cell-based, human. The conditions noted are these: 48 h. The method, then:
Detection of activated ERK in cell lysates was enabled by the AlphaScreen SureFire ERK assay (Perkin Elmer) according to the manufacturers protocol. Cells were plated in 96-well plates for 24 hours prior to the assay.
A general note: Alpha assays give light when donor and acceptor beads are brought close together.

In the next series the test system is HT29 cells. As to the kind of experiment: Glutathione and reactive oxygen species in HT29 cells. The settings on record: 48 h. The format is cell-based, human. The method, then: Glutathione levels were measured using a commercially available kit (Cayman Chemical 703002) according to the manufacturers protocol. Concurrently ROS was measured in cells using CM-H2DCFDA (Life Technologies C6827) coupled with flow cytometry in accordance with the manufacturers protocol. The assay was replicated replicated at least three times, technically and biologically. Significance was calculated using a t-test in Graphpad Prism. Error is reported as standard deviation (SD).

Another series has as its system HT29 and HCT-116 cells. As to the kind of experiment: Cell viability with or without chloroquine. The settings on record: combined with chloroquine (10 μM), 48 h. The class given is cell-based, human. The method, then:
Viability was evaluated using a commercially available chemiluminescent reagents (CellTiter-Glo, Promega Corp. G7572; MultiTox Glo, Promega Corp. G9270) in 96-well plate format according to the manufacturers protocol. […] Subsequently, CellTiter-Glo reagent was added and the plates were read using a plate reader (BioTek Synergy 4) with standard settings. Each set of conditions was replicated at least three times, technically and biologically. Error is reported as standard deviation (SD). The sulforhodamine B assay was run analogously to the above assays as previously described^19.

Another series relates to HCC1806 cells. Kind of series: Fluorescence redox ratio imaging. The class given is cell-based, human. The settings on record: 10 μM, 48 h. The method, then:
HCC1806 cells were plated on 35-mm glass-bottom petri dishes for imaging (MatTek Corp). Fluorescence intensity and lifetime images were acquired using a custom-built multiphoton fluorescence lifetime system (Bruker), with a 40× oil-immersion objective (1.3 NA) and an inverted microscope (TiE, Nikon). A titanium:sapphire laser (Chameleon Ultra II, Coherent) was tuned to 750 nm for two-photon excitation of NAD(P)H and tuned to 890 nm for two-photon excitation of FAD. A 440/80 nm bandpass filter was used to collect NAD(P)H fluorescence emission, and a 550/100 nm was used to collect FAD emission. […] A GaAsP PMT (H7422P-40, Hamamatsu) detected emitted photons. […] Time-correlated single photon counting electronics (SPC-150, Becker and Hickl) were used to acquire fluorescence decay curves. […] Fluorescence lifetime validation was performed by imaging a fluorescent bead (Polysciences Inc) and confirming that the measured lifetime (2.1 ns) agreed with previously published values^22. […]
An automated cell segmentation routine was written using CellProfiler to identify individual cell cytoplasms and extract average fluorescence intensity and fluorescence lifetime values for each cell in the field of view. Intensity values for each pixel were calculated by integrating the decay curve for each pixel. […]

A short description of series [3]: V-9302 concentration in whole blood with time. The settings on record: single dose 75 mg/kg, healthy mice. The class given is in vivo, mouse. The method, then: Liquid chromatography-tandem mass spectroscopy (LC-MS/MS) analyses were performed via reverse phase chromatography using a Shimadzu Nexera X2 UPLC (Columbia, Md.) coupled with a QTrap® 5500 (Sciex, Framinghman, MA, USA). […] Blank samples were made using fresh whole blood applied to Mitra® Microsamplers and allowed to dry for at least 24 h. All data were collected using Sciex Analyst 1.6.2 software and analyzed with MultiQuant 3.0 software. Error is reported as standard deviation (SD).

Series [4] relates to patient-derived xenograft (PDX) tumor A-008. Kind of series: Patient-derived xenograft chronic exposure study. The conditions noted are these: 75 mg/kg daily, 31 days; vs vehicle. The class given is in vivo, mouse. The method, then:
For in vivo studies, cell-line xenograft tumors were propagated in 6-week old, female athymic nude mice from immortalized cell lines. For HCC-1806 (10×10^6 cells), HCT-116 (5×10^6), and HT29 (10×10^6) cells were injected. Palpable tumors were typically visible within 2-3 weeks. For imaging studies (HCC-1806), tumors were propagated to approximately 500 mm^3. For treatment studies (HCT-116, HT29) tumors were propagated to approximately 200 mm^3 prior to therapy and were randomly assigned into treated and untreated cohorts. For generating the PDX, primary tumor tissue was obtained form a patient at Vanderbilt University Medical Center under an IRB approved protocol. The tumor tissue was genotyped within the VANTAGE core facility. Xenograft was generated as previously described 41. Briefly, tumor tissues were sectioned into approximately 125 cubic millimeter pieces then implanted subcutaneously without further manipulation. […] Tumor volumes were measured manually using calipers every third day and quantified using the formula V=W·L·(H/2).
Background: Xenograft models place foreign cells or tissue in a host animal.

The nature of series [5]: Tolerability in chronic exposure studies (body mass, liver pathology). The class given is in vivo, mouse. The conditions noted are these: 75 mg/kg per day, 21 days, vs vehicle.

Entries after “also recorded” stand apart in the source; their conditions may differ.

For `Cc1cccc(COc2ccccc2CN(CCC(N)C(=O)O)Cc2ccccc2OCc2cccc(C)c2)c1` (centres unmarked) [Compound V-9302], the T-cell activation entry in series [1] (CD44 expression) is reported as “not impaired”. For the same molecule, in series [1] (in vitro, relative to vehicle), the T-cell viability entry is on record as “unchanged relative to vehicle”. Besides, the “pERK (independent biochemical assay)” value in series [2] was “statistically significant, concentration-dependent decrease in pERK”. In addition, in the series with HT29 cells, the “GSSG levels and ROS” value is “elevated GSSG levels and ROS”. Further, the “cell viability, combination” value with HT29 and HCT-116 cells is given as “further decreased cell viability”. Besides, the “fluorescent lifetimes of NAD(P)H and FAD” value in the series with HCC1806 cells was “decreased the fluorescent lifetimes of both NAD(P)H and FAD”. In addition, in series [3] (mouse, whole blood), the half-life is about 360 min. Further, the “time to steady-state whole blood concentration” value in series [3] stood at 4 h. Besides, in series [4], the tumor volume entry is reported as “reduction in tumor volume”. Further, the liver pathology result in series [5] (athymic nude mice, H&E) is on record as “similar; also recorded: no discernible difference”. Besides, the weight loss result in series [5] (chronic exposure) was “no significant weight loss”.
